What was measured:
Assay type in all cases: cell-based, Zymomonas mobilis
ZW658 strain [1] = experiment: Tube fermentation of ZW658 on glucose and xylose with various sugar alcohols (Example 14); details: for ethanol production / xylose utilization: 10 mM sugar alcohol vs control; for OD600: after 48 hours, 10 mM sugar alcohol, 92 g/L glucose, 82 g/L xylose
Experimental: (§1) Approximately 1 ml of well mixed sample was obtained from flask or fermentor. First the sample absorbance was measured directly with a spectrophotometer (Amersham Biosciences Ultrospec 3300pro, GE Healthcare, Piscataway, N.J., USA). If the reading was lower than 0.6 unit, no dilution was needed. If the reading was higher than 0.6 unit, the sample was diluted with culture medium until the actual reading was in the range of 0.1 to 0.6 unit. The original OD was calculated from the dilution ratio and the actual reading.
(§2) The analysis of sugars, acetate, ethanol, and other by-products was done with an Agilent 1100 series HPLC and Agilent ChemStation software for LC 3D. The column was BioRad Aminex HPX-87H(HPLC Organic Analysis Column 125-0140) with BioRad Micro-Guard Cartridge Cation-H (125-0129). The operating conditions were:
In six sterilized 50 ml screw-cap centrifuge tubes (Cat. No. 21008-178, VWR International, USA), 200 μl of ZW658 strain glycerol stock at OD600 of approximately 10 was inoculated into each flask with 25 ml of aqueous solution containing 92 g/L glucose, 82 g/L xylose, 10 g/L yeast extract (YE), 2 g/L KH2PO4, 1 g/L MgSO4.7H2O, and 10 mM of D-sorbitol, L-sorbitol, D-threitol, myo-inositol, or xylitol. The control had no addition of sugar alcohol. Initial pH was adjusted to 5.5 with 4 N H3PO4 solution. Fermentation was conducted at 33° C. and pH was not controlled. Samples were taken periodically between 0 and 48 hr. Samples were filtered through 0.22 micron filters, and the filtrates were analyzed by HPLC as described in General Methods for glucose, xylose, xylitol, and ethanol. Samples were diluted with medium (as described in General Methods) and the OD600 was measured to monitor cell growth. Results of growth and glucose utilization are given in FIGS. 22A and 22B, respectively. Results of xylose utilization and ethanol production are given in FIGS. 23A and 23B, respectively. Cultures with D-sorbitol or L-sorbitol grew faster and better than the control. After 48 hours, the OD600 were 6.2 and 5.2, respectively, for cultures supplemented with D-sorbitol or L-sorbitol; while the OD600 were less than 1 for other cultures. […] The presence of D-sorbitol or L-sorbitol allowed more xylose utilization, without production of xylitol.

ZW658 strain [2] = experiment: Tube fermentation of ZW658 on glucose and xylose with various sugar alcohols (Example 13); details: for ethanol production / xylose utilization: sugar alcohol in the medium vs control
Experimental: as §1, §2
In eight sterilized 50 ml screw-cap centrifuge tubes (Cat. No. 21008-178, VWR International, USA), 200 μl of ZW658 strain glycerol stock at OD600 of approximately 10 was inoculated into each flask with 25 ml of aqueous solution containing 92 g/L glucose, 82 g/L xylose, 10 g/L yeast extract (YE), 2 g/L KH2PO4, 1 g/L MgSO4.7H2O, and either 10 mM of sorbitol, arabitol, adonitol (also called ribitol), or galactitol; or 50 mM of arabitol, adonitol, or galactitol. The control had no sugar alcohol added. Initial pH was adjusted to 5.5 with 4 N H3PO4 solution. Fermentation was conducted at 33° C. and pH was not controlled. Samples were taken periodically between 0 and 40 hr. Samples were filtered through 0.22 micron filters, and the filtrates were analyzed by HPLC as described in General Methods for glucose, xylose, xylitol, and ethanol. Samples were diluted with medium (as described in General Methods) and the OD600 was measured to monitor cell growth. Results of growth and glucose utilization are given in FIGS. 20A and 20B, respectively. Results of xylose utilization and ethanol production are given in FIGS. 21A and 21B, respectively. Cultures with sorbitol or galactitol grew much faster and better than the control. Cultures with adonitol also grew better. After 40 hours, the OD600 were 7 to 8, for cultures supplemented with sorbitol or galactitol; the OD600 were about 5, for cultures supplemented with adonitol; while the OD600 were less than 1 for other cultures. […] The presence of sorbitol, galactitol, or adonitol allowed more xylose utilization, without production of xylitol.

ZW658 strain [3] = experiment: Flask fermentation of ZW658 on glucose and xylose with various polyols; details: 10 mM polyol; for ethanol production / xylose utilization: mixed sugars; for OD600: after 32 hours, total sugar about 160 g/L, 33° C.
Experimental: as §1, §2
(§3) Glycerol stock of seed frozen at −80° C. was thawed, then inoculated into sterile culture tubes with mixture of 60 g/L glucose, 20 g/L xylose, 10 g/L yeast extract (YE), 10 g/L KH2PO4, 2 g/L (NH4)2SO4, and 1 g/L MgSO4. Initial pH was adjusted to 5.5 with 4 N KOH. This revival culture was grown statically overnight at 37° C. It was transferred into shake flasks with 75 g/L glucose, 25 g/L xylose, 10 g/L yeast extract (YE), 10 g/L KH2PO4, 2 g/L (NH4)2SO4, and 1 g/L MgSO4. Initial pH was adjusted to 5.5 with 4 N KOH. Growth was monitored by measuring OD600. When the OD reached approximately 5, a certain volume of the seed was withdrawn into a sterile syringe for inoculation.
In five sterilized 125 ml Erlenmeyer culture flasks (Cat. No. 30180-036, VWR International, USA), 10 ml of ZW658 strain seed culture at OD600 of approximately 5 was inoculated into each flask with 100 ml of aqueous solution containing 100 g/L glucose, 80 g/L xylose, 10 g/L yeast extract (YE), 2 g/L KH2PO4, 1 g/L MgSO4.7H2O, and 4 g/L KHCO3, and 10 mM of one of the following polyols: erythritol, sorbitol, mannitol, maltitol, or lactitol. After inoculation, the total sugar concentration was about 160 g/L due to dilution by the seed culture. Initial pH was adjusted to 5.5 with 4 N H3PO4 solution. Mixing speed was set at 150 rpm. Fermentation was conducted at 33° C. and pH was not controlled. Samples were taken periodically. Samples were filtered through 0.22 micron filters, and the filtrates were analyzed by HPLC as described in General Methods for compounds including glucose, xylose, ethanol, xylitol, and acetic acid. Samples were diluted with medium (as described in General Methods) and the OD600 was measured to monitor cell growth. […] Cultures with sorbitol or mannitol grew faster and better. After 32 hours, the OD600 were 13.94 and 13.92, respectively, for cultures supplemented with sorbitol or mannitol; meanwhile, the OD600 were 9.48, 9.02, and 9.24, respectively, for cultures supplemented with erythritol, maltitol, or lactitol. […] The presence of sorbitol or mannitol allowed more xylose utilization, without production of xylitol.

ZW658 strain [4] = experiment: Flask fermentation of ZW658 on glucose and xylose with acetate and various polyols; details: 10 mM polyol, 3 g/L acetate; for OD600: after 32 hours, total sugar about 160 g/L
Experimental: as §1, §2, §3
In five sterilized 125 ml Erlenmeyer culture flasks (Cat. No. 30180-036, VWR International, USA), 10 ml of ZW658 strain seed culture at OD600 of approximately 5 was inoculated into each flask with 100 ml of aqueous solution containing 100 g/L glucose, 80 g/L xylose, 3 g/L acetate, 10 g/L yeast extract (YE), 2 g/L KH2PO4, 1 g/L MgSO4.7H2O, and 4 g/L KHCO3, and 10 mM of the following polyols: erythritol, sorbitol, mannitol, maltitol, or lactitol; or 5 mM sorbitol plus 5 mM maltitol, or 5 mM sorbitol plus 5 mM lactitol. After inoculation, the total sugar concentration was about 160 g/L due to dilution by the seed culture. Initial pH was adjusted to 5.5 with 4 N H3PO4 solution. Mixing speed was set at 150 rpm. Fermentation was conducted at 33° C. and pH was not controlled. Samples were taken periodically. Samples were filtered through 0.22 micron filters, and the filtrates were analyzed by HPLC as described in General Methods for compounds including glucose, xylose, ethanol, and acetate. Samples were diluted with medium (as described in General Methods) and the OD600 was measured to monitor cell growth.

ZW658 strain [5] = experiment: 1-liter fermentor, ZW658 on high concentration glucose and xylose with sorbitol or glutamate
Experimental: as §1, §2, §3
In a sterilized 1-liter fermentor (BIOSTAT® B-DCU system, Sartorius BBI System Inc., Bethlehem, Pa., USA), 50 ml of ZW658 strain seed culture at Optical Density of approximately 5 (measured at 600 nm) was inoculated into 450 ml of aqueous solution containing sugars and medium. The final mixed broth contained 100 g/L glucose, 85.1 g/L xylose, 10 g/L yeast extract (YE), 2 g/L KH2PO4, and 10 mM sorbitol. pH was adjusted to 5.5 with 4 N KOH solution. Mixing speed was set at 150 rpm. Fermentation was conducted at 33° C. and pH 5.5. Samples were taken periodically. Samples were filtered through 0.22 micron filters, and the filtrates were analyzed by HPLC as described in General Methods for compounds including glucose, xylose, ethanol, and acetate. Samples were also diluted with medium (as described in General Methods) and the OD600 was measured to monitor cell growth. […] The by-product xylitol concentration was 0.67 g/L at 29 hr, and increased to 0.95 g/L at 64 hr.
In a sterilized 1-liter fermentor (BIOSTAT® B-DCU system, Sartorius BBI System Inc., Bethlehem, Pa., USA), 50 ml of ZW658 strain seed culture at OD600 of approximately 5 was inoculated into 450 ml of aqueous solution containing sugars and medium. The final mixed broth contained 98.0 g/L glucose, 81.2 g/L xylose, 10 g/L yeast extract (YE), 2 g/L KH2PO4, and 10 mM potassium glutamate. pH was adjusted to 5.5 with 4 N KOH solution. Mixing speed was set at 150 rpm. Fermentation was conducted at 33° C. and pH 5.5. Samples were taken periodically. Samples were filtered through 0.22 micron filters, and the filtrates were analyzed by HPLC as described in General Methods for compounds including glucose, xylose, xylitol, ethanol, and acetic acid. Samples were also diluted with medium (as described in General Methods) and the OD600 was measured to monitor cell growth. […] However, xylose was not well-utilized, cell growth and ethanol production were reduced as compared to that in the presence of sorbitol (Example 4), and xylitol production increased.

[6] = after 63.75 hours, 10 mM potassium glutamate
[7] = in the presence of glutamate, mixed sugars

SMILES: OC[C@@H](O)[C@@H](O)[C@H](O)[C@@H](O)CO [D-sorbitol]
- ethanol production (ZW658 strain [1]): ethanol production was also better
- xylose utilization (ZW658 strain [1]): More xylose was utilized
- OD600 (ZW658 strain [1]): 6.2

SMILES: OC[C@@H](O)[C@H](O)[C@@H](O)[C@@H](O)CO [L-sorbitol]
- ethanol production (ZW658 strain [1]): ethanol production was also better
- xylose utilization (ZW658 strain [1]): More xylose was utilized
- OD600 (ZW658 strain [1]): 5.2

SMILES: OC[C@@H](O)[C@@H](O)[C@@H](O)CO [adonitol]
- OD600 (ZW658 strain [2]; after 40 hours, 10 mM sorbitol, 10 mM or 50 mM other sugar alcohols, 92 g/L glucose, 82 g/L xylose): about 5
- ethanol production (ZW658 strain [2]): ethanol production was also better
- xylose utilization (ZW658 strain [2]): More xylose was utilized

SMILES: OC[C@@H](O)[C@@H](O)CO [erythritol]
- ethanol production (ZW658 strain [3]): do not increase ethanol production
- xylose utilization (ZW658 strain [3]): nor do they increase xylose utilization
- OD600 (ZW658 strain [3]): 9.48
- OD600 (ZW658 strain [4]): 5.20

SMILES: OC[C@@H](O)[C@H](O)[C@H](O)[C@@H](O)CO [galactitol]
- ethanol production (ZW658 strain [2]): ethanol production was also better
- xylose utilization (ZW658 strain [2]): More xylose was utilized

SMILES: N[C@@H](CCC(=O)[O-])C(=O)[O-].[K+].[K+] [glutamate, potassium glutamate, reference compound]
- effect on lag period (ZW658 strain [5]; 10 mM potassium glutamate): reduced the lag period
- time at which glucose concentration reached 0 (ZW658 strain [5]; 10 mM potassium glutamate): 24 h
- OD600 cells grew to (ZW658 strain [5]; [6]): 6.9
- by-product xylitol concentration (ZW658 strain [5]; [6]): 4.38 g/L
- ethanol concentration (ZW658 strain [5]; [6]): 72.3 g/L
- xylose concentration (ZW658 strain [5]; after 63.75 hours, 98.0 g/L glucose, 81.2 g/L xylose, 10 mM potassium glutamate): 21.2 g/L
- glucose concentration (ZW658 strain [5]; after 63.75 hours, 98.0 g/L glucose, 81.2 g/L xylose, 10 mM potassium glutamate, 33° C., pH 5.5): 0 g/L
- effect on ethanol production (ZW658 strain [5]; [7]): ethanol production is not improved
- effect on xylitol production (ZW658 strain [5]; [7]): xylitol production is not reduced
- effect on xylose utilization (ZW658 strain [5]; [7]): xylose utilization is not enhanced

SMILES: OC[C@@H](O)[C@@H](O[C@@H]1O[C@H](CO)[C@H](O)[C@H](O)[C@H]1O)[C@H](O)[C@@H](O)CO [lactitol]
- ethanol production (ZW658 strain [3]): do not increase ethanol production
- xylose utilization (ZW658 strain [3]): nor do they increase xylose utilization
- OD600 (ZW658 strain [3]): 9.24
- OD600 (ZW658 strain [4]): 5.30

SMILES: OC[C@@H](O)[C@@H](O[C@H]1O[C@H](CO)[C@@H](O)[C@H](O)[C@H]1O)[C@H](O)[C@@H](O)CO [maltitol]
- ethanol production (ZW658 strain [3]): do not increase ethanol production
- xylose utilization (ZW658 strain [3]): nor do they increase xylose utilization
- OD600 (ZW658 strain [3]): 9.02
- OD600 (ZW658 strain [4]): 5.20

SMILES: OC[C@@H](O)[C@@H](O)[C@H](O)[C@H](O)CO [mannitol]
- ethanol production (ZW658 strain [3]): ethanol production was also better
- xylose utilization (ZW658 strain [3]): More xylose was utilized
- OD600 (ZW658 strain [3]): 13.92
- ethanol production (ZW658 strain [4]): ethanol production was also better
- xylose utilization (ZW658 strain [4]): More xylose was utilized
- OD600 (ZW658 strain [4]): 7.40

From patent US7629156B2, “Ethanol production in fermentation of mixed sugars containing xylose” (E.I. du Pont de Nemours and Company, priority 2006, dated 2009)
